Patent US8178506B2, “Oligomeric compounds and compositions for use in modulation of small non-coding RNAs” (Regulus Therapeutics Inc., priority 2003, dated 2012)
In the oligonucleotide strings, read from the 5' end, every base follows the letter of its sugar. An asterisk marks phosphorothioate; unmarked linkages are phosphodiester. Other units and linkages are bracketed, terminal groups are in braces. A string of capitals states the bases alone. e = 2'-O-(2-methoxyethyl) (MOE); [5mC] = 5-methylcytosine; d = 2'-deoxy (DNA)

What was measured:
T47Dp53 cells = assay: Cell cycle assay in T47Dp53 cells; assay type: cell-based, human; conditions: 150 nM, 48 hours, relative to untreated control
ob/ob mice = assay: ob/ob mice: plasma parameters, food consumption, marker gene mRNA; assay type: in vivo, mouse; conditions: ob/ob mice, 25 mg/kg s.c. two times per week, 6 weeks
How it was run: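 Male C57Bl/6J ob/ob mice received oligomeric compound or control at 25 mg/kg s.c. twice weekly, for 4 weeks on a 10-15% fat diet or for 6 weeks on high-fat diet. Plasma glucose and insulin were measured at 0, 2 and 4 weeks; i.p. glucose/insulin tolerance tests were run; serum lipids, liver triglycerides and histology were assessed, with liver, BAT and WAT mRNA quantified by real-time PCR.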

For “328403 (antisense eA*eG*eG*e[5mC]*e[5mC]*dT*dA*dT*dT*d[5mC]*d[5mC]*dT*dG*dT*dA*eG*e[5mC]*eA*eA*eA) [compound 328403]”, the “% cells in cell cycle phase G1” value (T47Dp53 cells) was 114%, the “% cells in cell cycle phase G2/M” value (T47Dp53 cells) was 94% and the “% cells in cell cycle phase S” value (T47Dp53 cells) was 87%. For the same substance, the “% cells in cell cycle phase aneuploid” value (T47Dp53 cells) was 89% and the “% cells in cell cycle phase subG1” value (T47Dp53 cells) was 140%.
With “CTAGTGGTCCTAAACATTTCAC (chemistry not given here) [ISIS 327878, uniform 2′-MOE PS; targets mir-203]” the “plasma glucose levels (fed)” value (ob/ob mice) was “reduced beginning at approximately four weeks after the start of treatment”.
